# Source: paper PMC6629894, “Ruthenium Complexes Containing Heterocyclic Thioamidates Trigger Caspase-Mediated Apoptosis Through MAPK Signaling in Human Hepatocellular Carcinoma Cells” (Frontiers in Oncology, 2019)
# System: ERK1/2 (pT202/pY204)
# Experiment: Phosflow analysis of phosphorylated MAPK
# Assay type: cell-based, human
# Details: HepG2, 10 μM, 15 min
# Procedure: Phosphorylated extracellular signal-regulated kinase (ERK), JNK/SAPK and p38 MAPK were quantified by flow cytometry as previously described ([26]). The cells were collected and resuspended in 0.5–1 mL of 4% formaldehyde and fixed for 10 min at 37°C. Then, the tubes were chilled on ice for 1 min. The cells were permeabilized by slowly adding ice-cold 100% methanol to the cooled cells while gently vortexing to a final concentration of 90% methanol and incubating for 30 min on ice. After washing with incubation buffer (0.5% bovine serum albumin in PBS), PE mouse anti-JNK/SAPK (pT183/pY185) (ID 562480), PE mouse anti-p38 MAPK (pT180/pY182) (ID 612565), PE mouse anti-ERK1/2 (pT202/pY204) (ID 612566) or PE mouse IgG1,κ isotype control (ID 555749) antibodies, all from BD Biosciences, were added and incubated for 1 h at room temperature. Finally, the cells were washed with PBS, and the cell fluorescence was measured by flow cytometry.
# For all flow cytometry analyses, at least 10^4 events were recorded per sample using a BD LSRFortessa cytometer, BD FACSDiva Software (BD Biosciences) and FlowJo Software 10 (FlowJo Lcc; Ashland, OR, USA). Cellular debris was omitted from the analysis.
smiles,measurement,value
"Cn1ccnc1[S-].F[P-](F)(F)(F)(F)F.[Ru+2].c1ccc(-c2ccccn2)nc1.c1ccc(P(CCCCP(c2ccccc2)c2ccccc2)c2ccccc2)cc1 [Complex 1, [Ru(mmi)(bipy)(dppb)]PF6]",phosphorylation of ERK1/2,induced the phosphorylation of ERK1/2
